{
  "source": "PubChem BioAssay (NCI)",
  "note": "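48-hour exposure; five concentrations; linearly interpolated endpoints. At the TGI there is no net growth.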",
  "data": [
    {"tested_on": "MOLT-4 leukemia", "assay": "growth of human tumour cells (NCI), 48 h", "units": {"TGI": "µM"}, "values": [
      {"smiles": "C[Si](C)(C)CN1C(=O)c2ccccc2C1(O)c1ccccc1", "note": "(configuration not stated)", "TGI": "> 100"},
      {"smiles": "CC(C)(C)OC(=O)N1C2CCCC23O[C@@H]1c1cc2c(cc1C3=O)OCO2", "note": "(some centres not stated)", "TGI": "> 100"},
      {"smiles": "COC(=O)c1c[nH]cc1CCCCc1c[nH]cc1C(=O)OC", "TGI": "> 100"},
      {"smiles": "CCOC(=O)CCC(NC(=O)c1ccc(NCc2ccc3nc(-c4ccccc4)c(Cl)nc3c2)cc1)C(=O)OCC", "note": "(configuration not stated)", "TGI": 44.9}
    ]},
    {"tested_on": "SNB-19 CNS", "assay": "growth of human tumour cells (NCI), 48 h", "units": {"TGI": "µM"}, "values": [
      {"smiles": "C[Si](C)(C)CN1C(=O)c2ccccc2C1(O)c1ccccc1", "note": "(configuration not stated)", "TGI": "> 100"},
      {"smiles": "CC(C)(C)OC(=O)N1C2CCCC23O[C@@H]1c1cc2c(cc1C3=O)OCO2", "note": "(some centres not stated)", "TGI": "> 100"},
      {"smiles": "COC(=O)c1c[nH]cc1CCCCc1c[nH]cc1C(=O)OC", "TGI": "> 100"},
      {"smiles": "CCOC(=O)CCC(NC(=O)c1ccc(NCc2ccc3nc(-c4ccccc4)c(Cl)nc3c2)cc1)C(=O)OCC", "note": "(configuration not stated)", "TGI": "> 100"}
    ]},
    {"tested_on": "SF-539 CNS", "assay": "growth of human tumour cells (NCI), 48 h", "units": {"TGI": "µM"}, "values": [
      {"smiles": "C[Si](C)(C)CN1C(=O)c2ccccc2C1(O)c1ccccc1", "note": "(configuration not stated)", "TGI": "> 100"},
      {"smiles": "CC(C)(C)OC(=O)N1C2CCCC23O[C@@H]1c1cc2c(cc1C3=O)OCO2", "note": "(some centres not stated)", "TGI": 55.4},
      {"smiles": "COC(=O)c1c[nH]cc1CCCCc1c[nH]cc1C(=O)OC", "TGI": "> 100"},
      {"smiles": "CCOC(=O)CCC(NC(=O)c1ccc(NCc2ccc3nc(-c4ccccc4)c(Cl)nc3c2)cc1)C(=O)OCC", "note": "(configuration not stated)", "TGI": "> 100"}
    ]},
    {"tested_on": "UO-31 renal", "assay": "growth of human tumour cells (NCI), 48 h", "units": {"TGI": "µM"}, "values": [
      {"smiles": "C[Si](C)(C)CN1C(=O)c2ccccc2C1(O)c1ccccc1", "note": "(configuration not stated)", "TGI": "> 100"},
      {"smiles": "CC(C)(C)OC(=O)N1C2CCCC23O[C@@H]1c1cc2c(cc1C3=O)OCO2", "note": "(some centres not stated)", "TGI": "> 100"},
      {"smiles": "CCOC(=O)CCC(NC(=O)c1ccc(NCc2ccc3nc(-c4ccccc4)c(Cl)nc3c2)cc1)C(=O)OCC", "note": "(configuration not stated)", "TGI": 65.8}
    ]},
    {"tested_on": "M14 melanoma", "assay": "growth of human tumour cells (NCI), 48 h", "units": {"TGI": "µM"}, "values": [
      {"smiles": "C[Si](C)(C)CN1C(=O)c2ccccc2C1(O)c1ccccc1", "note": "(configuration not stated)", "TGI": "> 100"},
      {"smiles": "CC(C)(C)OC(=O)N1C2CCCC23O[C@@H]1c1cc2c(cc1C3=O)OCO2", "note": "(some centres not stated)", "TGI": "> 100"},
      {"smiles": "CCOC(=O)CCC(NC(=O)c1ccc(NCc2ccc3nc(-c4ccccc4)c(Cl)nc3c2)cc1)C(=O)OCC", "note": "(configuration not stated)", "TGI": 39.5}
    ]},
    {"tested_on": "DMS 273 small cell lung", "assay": "growth of human tumour cells (NCI), 48 h", "units": {"TGI": "µM"}, "values": [
      {"smiles": "C[Si](C)(C)CN1C(=O)c2ccccc2C1(O)c1ccccc1", "note": "(configuration not stated)", "TGI": "> 100"},
      {"smiles": "CC(C)(C)OC(=O)N1C2CCCC23O[C@@H]1c1cc2c(cc1C3=O)OCO2", "note": "(some centres not stated)", "TGI": "> 100"},
      {"smiles": "COC(=O)c1c[nH]cc1CCCCc1c[nH]cc1C(=O)OC", "TGI": "> 100"},
      {"smiles": "CCOC(=O)CCC(NC(=O)c1ccc(NCc2ccc3nc(-c4ccccc4)c(Cl)nc3c2)cc1)C(=O)OCC", "note": "(configuration not stated)", "TGI": "> 100"}
    ]},
    {"tested_on": "U251 CNS", "assay": "growth of human tumour cells (NCI), 48 h", "units": {"TGI": "µM"}, "values": [
      {"smiles": "C[Si](C)(C)CN1C(=O)c2ccccc2C1(O)c1ccccc1", "note": "(configuration not stated)", "TGI": "> 100"},
      {"smiles": "CC(C)(C)OC(=O)N1C2CCCC23O[C@@H]1c1cc2c(cc1C3=O)OCO2", "note": "(some centres not stated)", "TGI": "> 100"},
      {"smiles": "COC(=O)c1c[nH]cc1CCCCc1c[nH]cc1C(=O)OC", "TGI": "> 100"},
      {"smiles": "CCOC(=O)CCC(NC(=O)c1ccc(NCc2ccc3nc(-c4ccccc4)c(Cl)nc3c2)cc1)C(=O)OCC", "note": "(configuration not stated)", "TGI": "> 100"}
    ]},
    {"tested_on": "786-0 renal", "assay": "growth of human tumour cells (NCI), 48 h", "units": {"TGI": "µM"}, "values": [
      {"smiles": "C[Si](C)(C)CN1C(=O)c2ccccc2C1(O)c1ccccc1", "note": "(configuration not stated)", "TGI": "> 100"},
      {"smiles": "CC(C)(C)OC(=O)N1C2CCCC23O[C@@H]1c1cc2c(cc1C3=O)OCO2", "note": "(some centres not stated)", "TGI": "> 100"},
      {"smiles": "COC(=O)c1c[nH]cc1CCCCc1c[nH]cc1C(=O)OC", "TGI": "> 100"},
      {"smiles": "CCOC(=O)CCC(NC(=O)c1ccc(NCc2ccc3nc(-c4ccccc4)c(Cl)nc3c2)cc1)C(=O)OCC", "note": "(configuration not stated)", "TGI": "> 100"}
    ]},
    {"tested_on": "NCI-H460 lung", "assay": "growth of human tumour cells (NCI), 48 h", "units": {"TGI": "µM"}, "values": [
      {"smiles": "C[Si](C)(C)CN1C(=O)c2ccccc2C1(O)c1ccccc1", "note": "(configuration not stated)", "TGI": "> 100"},
      {"smiles": "CC(C)(C)OC(=O)N1C2CCCC23O[C@@H]1c1cc2c(cc1C3=O)OCO2", "note": "(some centres not stated)", "TGI": "> 100"},
      {"smiles": "COC(=O)c1c[nH]cc1CCCCc1c[nH]cc1C(=O)OC", "TGI": "> 100"},
      {"smiles": "CCOC(=O)CCC(NC(=O)c1ccc(NCc2ccc3nc(-c4ccccc4)c(Cl)nc3c2)cc1)C(=O)OCC", "note": "(configuration not stated)", "TGI": "> 100"}
    ]},
    {"tested_on": "TK-10 renal", "assay": "growth of human tumour cells (NCI), 48 h", "units": {"TGI": "µM"}, "values": [
      {"smiles": "C[Si](C)(C)CN1C(=O)c2ccccc2C1(O)c1ccccc1", "note": "(configuration not stated)", "TGI": "> 100"},
      {"smiles": "CC(C)(C)OC(=O)N1C2CCCC23O[C@@H]1c1cc2c(cc1C3=O)OCO2", "note": "(some centres not stated)", "TGI": "> 100"},
      {"smiles": "COC(=O)c1c[nH]cc1CCCCc1c[nH]cc1C(=O)OC", "TGI": "> 100"},
      {"smiles": "CCOC(=O)CCC(NC(=O)c1ccc(NCc2ccc3nc(-c4ccccc4)c(Cl)nc3c2)cc1)C(=O)OCC", "note": "(configuration not stated)", "TGI": "> 100"}
    ]},
    {"tested_on": "LXFL 529 NSCLC", "assay": "growth of human tumour cells (NCI), 48 h", "units": {"TGI": "µM"}, "values": [
      {"smiles": "C[Si](C)(C)CN1C(=O)c2ccccc2C1(O)c1ccccc1", "note": "(configuration not stated)", "TGI": "> 100"},
      {"smiles": "CC(C)(C)OC(=O)N1C2CCCC23O[C@@H]1c1cc2c(cc1C3=O)OCO2", "note": "(some centres not stated)", "TGI": "> 100"},
      {"smiles": "CCOC(=O)CCC(NC(=O)c1ccc(NCc2ccc3nc(-c4ccccc4)c(Cl)nc3c2)cc1)C(=O)OCC", "note": "(configuration not stated)", "TGI": "> 100"}
    ]},
    {"tested_on": "HOP-92 NSCLC", "assay": "growth of human tumour cells (NCI), 48 h", "units": {"TGI": "µM"}, "values": [
      {"smiles": "C[Si](C)(C)CN1C(=O)c2ccccc2C1(O)c1ccccc1", "note": "(configuration not stated)", "TGI": 97.9},
      {"smiles": "CC(C)(C)OC(=O)N1C2CCCC23O[C@@H]1c1cc2c(cc1C3=O)OCO2", "note": "(some centres not stated)", "TGI": "> 100"},
      {"smiles": "COC(=O)c1c[nH]cc1CCCCc1c[nH]cc1C(=O)OC", "TGI": "> 100"},
      {"smiles": "CCOC(=O)CCC(NC(=O)c1ccc(NCc2ccc3nc(-c4ccccc4)c(Cl)nc3c2)cc1)C(=O)OCC", "note": "(configuration not stated)", "TGI": 27.3}
    ]},
    {"tested_on": "DLD-1 colon", "assay": "growth of human tumour cells (NCI), 48 h", "units": {"TGI": "µM"}, "values": [
      {"smiles": "C[Si](C)(C)CN1C(=O)c2ccccc2C1(O)c1ccccc1", "note": "(configuration not stated)", "TGI": "> 100"},
      {"smiles": "CC(C)(C)OC(=O)N1C2CCCC23O[C@@H]1c1cc2c(cc1C3=O)OCO2", "note": "(some centres not stated)", "TGI": "> 100"},
      {"smiles": "CCOC(=O)CCC(NC(=O)c1ccc(NCc2ccc3nc(-c4ccccc4)c(Cl)nc3c2)cc1)C(=O)OCC", "note": "(configuration not stated)", "TGI": "> 100"}
    ]},
    {"tested_on": "HOP-18 NSCLC", "assay": "growth of human tumour cells (NCI), 48 h", "units": {"TGI": "µM"}, "values": [
      {"smiles": "C[Si](C)(C)CN1C(=O)c2ccccc2C1(O)c1ccccc1", "note": "(configuration not stated)", "TGI": "> 100"},
      {"smiles": "COC(=O)c1c[nH]cc1CCCCc1c[nH]cc1C(=O)OC", "TGI": "> 100"}
    ]},
    {"tested_on": "SF-268 CNS", "assay": "growth of human tumour cells (NCI), 48 h", "units": {"TGI": "µM"}, "values": [
      {"smiles": "C[Si](C)(C)CN1C(=O)c2ccccc2C1(O)c1ccccc1", "note": "(configuration not stated)", "TGI": "> 100"},
      {"smiles": "CC(C)(C)OC(=O)N1C2CCCC23O[C@@H]1c1cc2c(cc1C3=O)OCO2", "note": "(some centres not stated)", "TGI": "> 100"}
    ]}
  ]
}
